These results are taken from patent US4886826A, “Substituted 2,3,4,9-tetrahydro-1H-carbazole-1-acetic acid derivatives, composition and use” (American Home Products Corporation, priority 1989, dated 1989).

One experiment relates to lipoxygenase. Nature of the experiment: Rat Polymorphonuclear Leukocyte Assay, lipoxygenase products (leukotriene B4, 5-HETE). Type of experiment: cell-based. The note with it: 10 min, 10 μM drug concentration, minus=decrease, plus=increase relative to control (no drug), A23187-stimulated, 3H arachidonic acid. As to the method: (§1) A test for lipoxygenase and cyclooxygenase inhibitory activity is the Rat Polymorphonuclear Leukocyte Assay. The assay is carried out as follows: glycogen-elicited rat peritoneal cells (10^7 /1.0 mL) are incubated (37° C.)±drug in a shaking water bath for 10 minutes. One micromolar (final concentration) ^3 H arachidonic acid (2.0 μCi) is then added to each sample followed by the immediate addition of 1.0 micromolar A23187* (final concentration). The cells are incubated another 10 minutes and the reaction is stopped by high-speed centrifugation. Supernatants are then analyzed by HPLC using an in-line radioactivity detector. […] Results are qualitatively expressed as a percent change (minus=decrease, plus=increase) relative to the control (no drug). [drawing 20]

The test system of experiment [1] is Phenylbenzoquinone-induced writhing in mice. As to the kind of experiment: Phenylbenzoquinone-induced Writhing in Mice (analgesic activity). The class given is in vivo, Male Swiss albino mice. Conditions: 10 mg/kg, p.o.; mouse; writhes in 15 minutes, PBQ i.p. 60 minutes after dosing. How it is done:
A further test used to determine the utility of the compounds of the present invention is designated: Drug Effects on Phenylbenzoquinone-induced Writhing in Mice.
The objective of this test is to determine the ability of test drugs to inhibit the nociceptive (pain) response of mice injected with a chemical irritant. This test is a primary screen for both peripherally and centrally acting analgesic drugs.
Male Swiss albino mice (15-25 g) are used. The animals are fasted for 18 hours prior to use but have free access to water.
Drugs are dissolved or suspended according to their solubility in 0.5% Tween 80 in distilled water. They are administered by gastric gavage in a volume of 5 mL/kg. For primary screening all drugs are administered at the arbitrary dosage of 10 mg/kg, p.o. to a group of 10 mice.
A modification of the method of Siegmund et al., Proc. Soc. Exp. Biol. Med., 95, 729-731 (1957) is used. Groups of 5 mice are dosed with the test compound or vehicle control. Sixty minutes later the animals are injected i.p. with 0.3 mL/20 g body weight of a 0.02% solution of phenylbenzoquinone (PBQ; 2-phenyl-1,4-benzoquinone) and placed in individual observation boxes. The number of writhes or abdominal squirming movements made by each mouse during the following 15 minute period is counted. The experiment is repeated with another group of 5 mice and the mean number of writhes per mouse for a group of 10 mice is calculated.
Drug-treated and vehicle-treated control groups are compared and the percentage protection conferred by the drug is calculated: [formula] where c=mean number of writhes in the control group where t=mean number of writhes in the test drug group

Experiment [2] relates to Freund's complete adjuvant-induced hind paw edema in rats. As to the kind of experiment: Preventative Adjuvant Edema (Freund's complete adjuvant hind paw edema, acute anti-inflammatory effect). Conditions: 25 mg/kg, p.o.; rat; edema volume day 0 to day 3. The class given is in vivo, Male Sprague Dawley rats. As to the method:
This test is a primary screen for anti-inflammatory drugs.
Male Sprague Dawley rats (180-200 g) are used. The animals have free access to water but food is withdrawn 18 hours before testing.
Freund's complete adjuvant is prepared by suspending 5 mg of killed and dried Mycobacterium butyricum (Difco) in 1 mL liquid paraffin. The test compounds are dissolved in distilled water or suspended in 0.5% Tween 80 in distilled water according to their solubility. For primary screening all drugs are administered by gastric gavage at the arbitrary dosage of 25 mg/kg, p.o. in a volume of 0.5 mL/100 g body weight to groups of 10 animals.
The method is essentially that described by Wax et al, J. Pharmacol. Exp. Ther., 192, 166-171 (1975). Groups of rats are injected intradermally in the left hind paw with 0.1 mL of Freund's complete adjuvant. The test compound or vehicle is administered immediately before the adjuvant, 24 hours and 48 hours after the adjuvant (days 0, 1 and 2). The injected hind paw volume is measured before the injection of adjuvant and 24 hours after the last drug administration (day 3) by means of a plethysomometer (Buxco Electronics Inc.). The difference between the hind paw volume on day 0 and day 3 represents the edema volume. Etodolac (25 mg/kg, p.o.) is included as a positive control.
The mean edema volume (expressed as mL±SEM) is calculated for each group and the percentage inhibition of inflammation conferred by the drug is calculated: [formula] where c is the mean edema volume for the untreated controls and t is the mean edema volume for the drug treated group.

The next experiment has as its system cyclooxygenase. Nature of the experiment: Rat Polymorphonuclear Leukocyte Assay, cyclooxygenase products (thromboxane B2, prostaglandin E2). The note with it: 10 min, 10 μM drug concentration, minus=decrease, plus=increase relative to control (no drug), A23187-stimulated, 3H arachidonic acid. Type of experiment: cell-based. As to the method: as §1
Where [3] appears, read: read-out: % change 5-HETE (5-hydroxyeicosatetraenoic acid).
Setting [4] is: read-out: % change leukotriene B4.
The mark [5] stands for this setting: read-out: % change prostaglandin E2.
The mark [6] stands for this setting: read-out: % change thromboxane B2.

The structures appear in SMILES notation. Read-outs that look alike come from different tables or passages of the source.

Regarding `C=CCCCCC1CCC(CC)(CC(=O)O)c2[nH]c3c(C)cccc3c21` (single isomer, unassigned; isomer b) [Example 2, 1-Ethyl-4-(5-hexenyl)-2,3,4,9-tetrahydro-8-methyl-1H-carbazole-1-acetic Acid (Isomer B)], the inhibition at 10 µM is 92% with lipoxygenase (setting [3]), 95% with lipoxygenase (setting [4]), -22% in the experiment with cyclooxygenase (setting [5]) and 80% with cyclooxygenase (setting [6]). Further, the % Inhibition (in general, the share of the control response that was lost under treatment) in experiment [1] is reported as 0%; in experiment [2], 28%.
`C=CC/C=C\C[C@H]1CC[C@@](CC)(CC(=O)O)c2[nH]c3c(C)cccc3c21` (relative stereo) [Example 4, [1, 4 (Z)]-1-Ethyl-4-(2,5-hexadienyl)-2,3,4,9-tetrahydro-8-methyl-1H-carbazole-1-acetic Acid]: the inhibition at 10 µM in the experiment with lipoxygenase (setting [3]) is 94%; in the experiment on lipoxygenase (setting [4]), 94%; in the experiment with cyclooxygenase (setting [5]), 19%; with cyclooxygenase (setting [6]) it was 88%. The “% Inhibition” value in experiment [1] was found to be 23%; in experiment [2], 43%.
Take `C=CCCCCC1CCC(CC)(CC(=O)O)c2[nH]c3c(C)cccc3c21` (single isomer, unassigned; isomer a) [Example 3, 1-Ethyl-4-(5-hexenyl)-2,3,4,9-tetrahydro-8-methyl-1H-carbazole-1-acetic Acid (Isomer A)]: the “% Inhibition” value in experiment [1] was 10%; in experiment [2] it was 19%.
As for `C=CCCCCC1CCC(CC)(CC(=O)O)c2[nH]c3c(CC)cccc3c21` (single isomer, unassigned) [Example 1, 1,8-Diethyl-4(5-hexenyl)-2,3,4,9-tetrahydro-1H-carbazole-1-acetic Acid], the inhibition at 10 µM in the experiment on lipoxygenase (setting [3]) stood at 92%; with lipoxygenase (setting [4]), 93%; in the experiment on cyclooxygenase (setting [5]), 31%; in the experiment on cyclooxygenase (setting [6]), 82%. Also, the “% Inhibition” value in experiment [1] and in experiment [2] was 0% throughout.
